Consider two compounds from article PMC2931832 (ACS medicinal chemistry letters, 2010).

As a reminder, the IC50 is the point on the concentration scale where inhibition reaches its midpoint.

One series relates to H1299 lung tumor cell. Put plainly: cell culture-based proliferation assay, H1299. The settings on record: Homo sapiens, NCI-H1299, read-out: IC50 of H1299 tumor cell growth.
Another series relates to H460 lung tumor cell. As to the kind of experiment: cell culture-based proliferation assay, H460. The settings on record: Homo sapiens, NCI-H460, read-out: IC50 of H460 tumor cell growth.
The target of the next series is CYP2C9 (Homo sapiens, UniProt P11712). As to the kind of experiment: cytochrome p450 CYP2C9 inhibition. Conditions: 6 µM of compound.
Series [1] relates to breast, ovarian and lymphatic leukemia. The settings on record: cited from earlier work.
In another series the target is EGFR (Homo sapiens, UniProt P00533). As to the kind of experiment: EGFR kinase activity, fluorescence-based coupled-enzyme assay. In kind it is biochemical.
Series [2] deals with human Ether-a-go-go Related Gene (hERG) K+ channel (Homo sapiens, UniProt Q12809). As to the kind of experiment: hERG K+ channel binding / blockage. The settings on record: 6 µM of compound. A general note: hERG is a cardiac potassium channel; its block is linked to QT prolongation.
human Ether-a-go-go Related Gene (hERG) K+ channel, sequence (Q12809 whole entry): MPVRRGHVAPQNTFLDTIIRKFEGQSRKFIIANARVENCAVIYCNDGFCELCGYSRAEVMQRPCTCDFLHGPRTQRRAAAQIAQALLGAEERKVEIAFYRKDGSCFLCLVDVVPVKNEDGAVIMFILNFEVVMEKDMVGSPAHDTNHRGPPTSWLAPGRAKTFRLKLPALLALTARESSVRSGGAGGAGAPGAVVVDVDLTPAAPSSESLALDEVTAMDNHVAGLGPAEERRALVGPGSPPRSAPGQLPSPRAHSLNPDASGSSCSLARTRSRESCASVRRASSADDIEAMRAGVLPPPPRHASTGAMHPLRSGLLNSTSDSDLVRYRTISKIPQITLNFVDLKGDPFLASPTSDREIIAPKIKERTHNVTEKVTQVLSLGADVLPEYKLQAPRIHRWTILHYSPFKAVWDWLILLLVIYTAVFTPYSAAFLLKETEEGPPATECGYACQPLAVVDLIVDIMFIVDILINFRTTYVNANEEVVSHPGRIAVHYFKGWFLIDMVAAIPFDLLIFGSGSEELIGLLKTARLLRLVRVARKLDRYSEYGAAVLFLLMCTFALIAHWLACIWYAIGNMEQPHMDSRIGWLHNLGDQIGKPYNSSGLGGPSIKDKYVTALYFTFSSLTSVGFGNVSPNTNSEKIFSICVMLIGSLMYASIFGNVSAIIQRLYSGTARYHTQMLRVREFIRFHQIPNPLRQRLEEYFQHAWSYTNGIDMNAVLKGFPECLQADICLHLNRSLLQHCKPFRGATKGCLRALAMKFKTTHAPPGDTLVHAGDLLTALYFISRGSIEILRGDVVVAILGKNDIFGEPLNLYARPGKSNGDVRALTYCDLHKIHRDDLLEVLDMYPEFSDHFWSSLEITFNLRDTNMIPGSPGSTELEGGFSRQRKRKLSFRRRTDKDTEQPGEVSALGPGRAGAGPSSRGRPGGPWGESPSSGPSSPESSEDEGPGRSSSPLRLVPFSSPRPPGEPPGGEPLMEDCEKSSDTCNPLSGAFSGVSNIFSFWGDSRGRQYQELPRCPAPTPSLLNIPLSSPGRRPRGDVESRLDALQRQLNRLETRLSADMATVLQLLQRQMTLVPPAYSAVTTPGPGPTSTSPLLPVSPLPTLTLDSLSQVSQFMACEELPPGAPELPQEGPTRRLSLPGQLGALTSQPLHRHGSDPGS

CYP2C9, sequence (P11712 whole entry): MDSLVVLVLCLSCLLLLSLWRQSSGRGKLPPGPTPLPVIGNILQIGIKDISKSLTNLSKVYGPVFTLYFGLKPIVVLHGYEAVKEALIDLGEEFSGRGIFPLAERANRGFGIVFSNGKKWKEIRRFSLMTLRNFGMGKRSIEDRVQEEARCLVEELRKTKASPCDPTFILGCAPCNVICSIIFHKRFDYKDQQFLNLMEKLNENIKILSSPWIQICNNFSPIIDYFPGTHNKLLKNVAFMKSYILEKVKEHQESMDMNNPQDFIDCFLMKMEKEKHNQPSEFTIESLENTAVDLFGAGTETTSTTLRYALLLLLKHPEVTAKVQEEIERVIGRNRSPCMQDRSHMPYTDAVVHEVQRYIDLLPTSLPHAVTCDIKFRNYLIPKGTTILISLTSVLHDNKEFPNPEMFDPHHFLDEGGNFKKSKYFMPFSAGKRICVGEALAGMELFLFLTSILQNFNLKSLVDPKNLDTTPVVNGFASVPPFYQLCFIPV
EGFR, sequence (P00533 25-1210): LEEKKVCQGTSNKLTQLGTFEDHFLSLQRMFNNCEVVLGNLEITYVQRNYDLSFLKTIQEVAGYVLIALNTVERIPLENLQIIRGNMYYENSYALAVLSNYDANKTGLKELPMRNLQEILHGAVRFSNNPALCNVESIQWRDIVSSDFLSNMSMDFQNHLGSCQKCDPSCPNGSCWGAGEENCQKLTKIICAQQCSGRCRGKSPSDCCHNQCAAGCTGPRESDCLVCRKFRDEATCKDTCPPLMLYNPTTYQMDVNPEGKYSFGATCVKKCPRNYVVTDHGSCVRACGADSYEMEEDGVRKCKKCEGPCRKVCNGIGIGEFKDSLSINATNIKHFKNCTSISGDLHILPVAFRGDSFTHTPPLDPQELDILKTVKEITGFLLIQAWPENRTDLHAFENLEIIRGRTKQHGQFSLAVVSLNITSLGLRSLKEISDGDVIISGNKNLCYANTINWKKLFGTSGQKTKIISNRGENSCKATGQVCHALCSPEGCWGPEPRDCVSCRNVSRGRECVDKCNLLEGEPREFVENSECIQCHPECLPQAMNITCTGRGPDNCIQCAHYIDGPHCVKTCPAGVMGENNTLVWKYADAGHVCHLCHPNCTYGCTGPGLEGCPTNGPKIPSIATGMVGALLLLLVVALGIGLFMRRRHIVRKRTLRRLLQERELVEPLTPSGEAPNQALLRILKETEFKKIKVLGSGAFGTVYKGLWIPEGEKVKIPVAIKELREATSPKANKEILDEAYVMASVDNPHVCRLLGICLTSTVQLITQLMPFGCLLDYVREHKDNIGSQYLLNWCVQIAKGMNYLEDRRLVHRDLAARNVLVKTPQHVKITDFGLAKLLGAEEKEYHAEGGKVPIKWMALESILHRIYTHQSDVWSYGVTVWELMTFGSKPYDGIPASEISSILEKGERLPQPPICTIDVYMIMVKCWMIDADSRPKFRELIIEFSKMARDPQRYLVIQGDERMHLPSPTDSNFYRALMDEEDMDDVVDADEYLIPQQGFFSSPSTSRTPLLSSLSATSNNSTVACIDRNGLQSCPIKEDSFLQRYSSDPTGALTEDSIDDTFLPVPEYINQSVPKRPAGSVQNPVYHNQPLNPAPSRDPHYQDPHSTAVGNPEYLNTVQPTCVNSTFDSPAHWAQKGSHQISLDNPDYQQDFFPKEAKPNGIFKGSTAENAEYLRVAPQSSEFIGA

For the compound `C#Cc1cccc(Nc2ncnc3cc(OCCOC)c(OCCOC)cc23)c1` [erlotinib, reference compound], the IC50 in the series on H1299 lung tumor cell and in the series with H460 lung tumor cell was ~10 µM throughout. Further, the “inhibition of CYP2C9 (in words)” value against CYP2C9 is reported as “little inhibition”.

`C[C@H]1Oc2cc3c(-c4c(O)cc(O)c5c(O)c6c(cc45)O[C@H](C)[C@@H](C)C6=O)c(O)cc(O)c3c(O)c2C(=O)[C@@H]1C` [Compound 12, Chaetochromin A]: the “efficacy in breast, ovarian and lymphatic leukemia” value in series [1] was “shown efficacy”. Further, the IC50 on EGFR is 0.25 µM; with H1299 lung tumor cell it was ~1 µM. In addition, the “hERG K+ channel blockage (in words)” value in series [2] is “significant blockage”. Further, the “inhibition of CYP2C9 (in words)” value against CYP2C9 was “significant inhibition”.
